Literature values, collected in patent publication US20110052690A1, “PROCESS FOR MANUFACTURE OF A MEDICAMENT WITH GRANULATION AND PAN COATING” (priority 2008, published 2011).
Counter-ions that a name gives are not always drawn.

Details: plural daily dosing regime, compressed tablets

patients experiencing nausea: about forty five
patients in whom vomiting occurs: about seventeen
Structure (SMILES): COc1ccc(C(CN(C)C)C2(O)CCCCC2)cc1 (centres unmarked) [venlafaxine hydrochloride, 1-[(2-dimethylamino)-1-(4-methoxyphenyl)ethyl] cyclohexanol]
